In ChEMBL document CHEMBL5214965, “Synthesis and antidepressant activity of novel 1-(1-benzoylpiperidin-4-yl) methanamine derivatives selectively targeting SSRI/5-HT1A” (Bioorg Med Chem Lett, 2022):
Active and inactive are the calls of the source. The calls are words filed in the database; no cut-off is given here.

Columns and labels:
[1] = target: Sodium-dependent serotonin transporter (Rattus norvegicus, UniProt P31652); assay: Inhibition of serotonin transporter in rat brain tissue assessed as inhibition of [3H]-5-hydroxytryptamine reuptake; assay type: tissue-based
Sequence of Sodium-dependent serotonin transporter (P31652 whole entry): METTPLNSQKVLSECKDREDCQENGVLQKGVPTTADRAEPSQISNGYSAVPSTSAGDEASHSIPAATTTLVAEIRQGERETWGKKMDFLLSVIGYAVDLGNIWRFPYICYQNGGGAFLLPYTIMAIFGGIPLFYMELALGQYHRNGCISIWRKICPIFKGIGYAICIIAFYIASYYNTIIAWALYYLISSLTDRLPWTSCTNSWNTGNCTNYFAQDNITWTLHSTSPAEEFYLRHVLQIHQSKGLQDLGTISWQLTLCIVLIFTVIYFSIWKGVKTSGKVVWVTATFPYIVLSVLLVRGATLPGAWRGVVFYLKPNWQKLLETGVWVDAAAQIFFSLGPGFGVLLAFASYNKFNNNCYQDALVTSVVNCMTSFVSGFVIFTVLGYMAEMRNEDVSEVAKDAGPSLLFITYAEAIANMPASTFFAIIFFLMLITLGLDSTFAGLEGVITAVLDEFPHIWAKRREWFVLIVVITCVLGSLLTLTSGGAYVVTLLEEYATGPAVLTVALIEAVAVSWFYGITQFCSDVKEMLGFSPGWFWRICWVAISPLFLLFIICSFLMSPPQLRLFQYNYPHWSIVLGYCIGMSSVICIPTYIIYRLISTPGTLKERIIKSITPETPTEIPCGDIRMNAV

in vitro [2] = settings: human, liver microsomes
[3] = target: 5-hydroxytryptamine receptor 1B (Homo sapiens) (UniProt P28222); assay: Inhibition of 5-HT1B receptor (unknown origin); settings: concentration not given here
Sequence of 5-hydroxytryptamine receptor 1B (Homo sapiens) (P28222 whole entry): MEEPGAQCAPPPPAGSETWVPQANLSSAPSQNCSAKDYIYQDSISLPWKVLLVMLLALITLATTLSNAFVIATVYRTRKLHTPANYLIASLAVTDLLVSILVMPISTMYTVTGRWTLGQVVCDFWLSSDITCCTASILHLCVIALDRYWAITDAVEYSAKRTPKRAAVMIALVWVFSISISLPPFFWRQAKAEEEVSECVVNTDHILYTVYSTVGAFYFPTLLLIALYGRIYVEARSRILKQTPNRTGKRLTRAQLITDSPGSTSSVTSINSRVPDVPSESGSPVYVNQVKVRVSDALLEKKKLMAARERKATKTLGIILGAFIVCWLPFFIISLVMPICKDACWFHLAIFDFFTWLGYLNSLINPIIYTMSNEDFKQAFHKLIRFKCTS

[4] = target: Serotonin 3 (5-HT3) receptor (Homo sapiens) (UniProt P46098+A5X5Y0+O95264+Q70Z44+Q8WXA8); assay: Inhibition of 5-HT3 receptor (unknown origin); assay type: protein-complex assay; settings: concentration not given here
Homo sapiens [5] = species: Homo sapiens; assay: Inhibition of 5-HT7 receptor (unknown origin); settings: concentration not given here
[6] = Binding affinity to 5-HT7 receptor (unknown origin) assessed as inhibition constant; parameters: species or system Homo sapiens
[7] = target: 5-hydroxytryptamine receptor 1D (Homo sapiens) (UniProt P28221); assay: Inhibition of 5-HT1D receptor (unknown origin); settings: concentration not given here
Sequence of 5-hydroxytryptamine receptor 1D (Homo sapiens) (P28221 whole entry): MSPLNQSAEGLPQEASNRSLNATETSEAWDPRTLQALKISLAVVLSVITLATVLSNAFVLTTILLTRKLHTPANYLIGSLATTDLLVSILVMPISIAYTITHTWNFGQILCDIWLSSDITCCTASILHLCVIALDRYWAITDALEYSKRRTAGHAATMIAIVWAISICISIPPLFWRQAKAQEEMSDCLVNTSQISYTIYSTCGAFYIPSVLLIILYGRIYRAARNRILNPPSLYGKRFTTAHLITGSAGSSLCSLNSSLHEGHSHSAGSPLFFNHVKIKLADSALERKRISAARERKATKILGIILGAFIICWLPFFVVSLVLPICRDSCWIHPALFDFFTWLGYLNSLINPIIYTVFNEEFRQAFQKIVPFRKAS

[8] = target: T1, 5-hydroxytryptamine receptor 1A (Homo sapiens, UniProt P08908); assay: Displacement of [3H][…] from 5-HT1A receptor in human HEK293 cells measured after 60 mins by scintillation counting method; assay type: cell-based
T1 sequence (P08908 whole entry): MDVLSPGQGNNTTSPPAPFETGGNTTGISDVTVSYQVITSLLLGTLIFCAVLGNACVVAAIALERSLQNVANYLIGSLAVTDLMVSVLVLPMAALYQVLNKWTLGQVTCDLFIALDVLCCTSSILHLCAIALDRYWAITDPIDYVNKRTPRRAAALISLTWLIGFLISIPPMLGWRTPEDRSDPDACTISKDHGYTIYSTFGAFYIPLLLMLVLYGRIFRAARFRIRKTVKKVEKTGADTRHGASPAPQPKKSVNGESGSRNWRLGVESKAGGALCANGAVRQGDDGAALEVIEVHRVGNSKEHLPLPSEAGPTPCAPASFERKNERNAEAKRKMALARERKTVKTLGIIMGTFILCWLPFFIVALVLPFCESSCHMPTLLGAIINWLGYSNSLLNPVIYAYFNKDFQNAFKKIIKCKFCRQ

[9] = Binding affinity to 5-HT6 receptor (unknown origin) assessed as inhibition constant; parameters: species or system Homo sapiens
Mus musculus [10] = assay: Antidepressant activity in ICR mouse assessed as reduction in immobility time at 0.6 mg/kg, po for 7 days by forced swimming test; assay type: functional; parameters: scale not given: the % may be the effect or the level left; settings: time 7 day
Homo sapiens [11] = species: Homo sapiens; assay: Inhibition of 5-HT6 receptor (unknown origin); settings: concentration not given here
[12] = target: Sodium-dependent serotonin transporter (Rattus norvegicus) (UniProt P31652); assay: Inhibition of serotonin transporter in rat brain tissue assessed as inhibition of [3H]-5-hydroxytryptamine reuptake at 1 uM relative to control; assay type: tissue-based
Sequence of Sodium-dependent serotonin transporter (Rattus norvegicus) (P31652 whole entry): as the sequence (P31652 whole entry) above

in vitro [13] = settings: mouse, liver microsomes
Description: Metabolic stability in mouse liver microsomes assessed as clearance

[14] = target: 5-hydroxytryptamine receptor 2A (Homo sapiens) (UniProt P28223); assay: Inhibition of 5-HT2A receptor (unknown origin); settings: concentration not given here
Sequence of 5-hydroxytryptamine receptor 2A (Homo sapiens) (P28223 whole entry): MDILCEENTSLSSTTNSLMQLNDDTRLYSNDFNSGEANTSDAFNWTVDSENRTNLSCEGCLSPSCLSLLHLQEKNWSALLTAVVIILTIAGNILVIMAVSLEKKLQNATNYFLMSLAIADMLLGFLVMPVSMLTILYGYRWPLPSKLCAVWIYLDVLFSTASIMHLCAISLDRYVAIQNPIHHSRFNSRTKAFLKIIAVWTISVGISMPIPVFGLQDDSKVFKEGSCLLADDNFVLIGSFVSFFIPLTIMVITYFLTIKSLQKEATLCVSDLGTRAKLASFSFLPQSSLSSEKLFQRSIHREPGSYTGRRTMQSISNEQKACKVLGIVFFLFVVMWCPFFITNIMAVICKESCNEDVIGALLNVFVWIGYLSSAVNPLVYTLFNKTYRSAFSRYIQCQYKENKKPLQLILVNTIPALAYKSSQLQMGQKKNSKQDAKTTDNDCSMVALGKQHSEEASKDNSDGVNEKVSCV

[15] = target: T2, 5-hydroxytryptamine receptor 2C (Homo sapiens) (UniProt P28335); assay: Inhibition of 5-HT2C receptor (unknown origin); settings: concentration not given here
T2 sequence (whole entry): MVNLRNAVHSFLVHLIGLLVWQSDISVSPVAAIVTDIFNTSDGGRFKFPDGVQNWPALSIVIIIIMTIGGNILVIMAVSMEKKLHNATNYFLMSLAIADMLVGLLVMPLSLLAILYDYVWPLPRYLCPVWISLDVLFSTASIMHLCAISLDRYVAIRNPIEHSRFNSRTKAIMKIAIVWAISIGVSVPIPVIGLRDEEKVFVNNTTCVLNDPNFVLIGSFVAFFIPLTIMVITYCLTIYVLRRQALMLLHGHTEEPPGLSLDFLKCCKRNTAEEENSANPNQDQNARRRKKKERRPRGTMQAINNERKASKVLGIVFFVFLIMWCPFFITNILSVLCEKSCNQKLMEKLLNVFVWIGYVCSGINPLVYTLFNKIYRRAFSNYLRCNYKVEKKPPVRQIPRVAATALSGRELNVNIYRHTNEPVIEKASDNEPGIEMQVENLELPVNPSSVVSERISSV

[16] = target: T3, 5-hydroxytryptamine receptor 1A (Homo sapiens) (UniProt P08908); assay: Displacement of [3H][…] from 5-HT1A receptor in human HEK293 cells at 1 uM measured after 60 mins by scintillation counting method relative to control; assay type: cell-based
T3 sequence (whole entry): T1 sequence (P08908 whole entry)

in vitro [17] = settings: human, liver microsomes; remark: listed apart in the source
Description: Metabolic stability in human liver microsomes assessed as clearance

Mus musculus [18] = assay: Antidepressant activity in ICR mouse assessed as reduction in immobility time at 10 mg/kg, po for 7 days by tail suspension test; assay type: functional; parameters: scale not given: the % may be the effect or the level left; settings: time 7 day
Mus musculus [19] = assay: Antidepressant activity in ICR mouse assessed as reduction in immobility time at 0.6 to 80 mg/kg, po for 7 days by forced swimming test; assay type: functional, organism-based; settings: dose 0.6-80 mg/kg, time 7.0 day
Mus musculus [20] = assay: Antidepressant activity in ICR mouse assessed as reduction in immobility time at 0.6 mg/kg, po for 7 days by tail suspension test; assay type: functional; parameters: scale not given: the % may be the effect or the level left; settings: time 7 day
in vitro [21] = settings: mouse, liver microsomes; remark: listed apart in the source
Description: Metabolic stability in mouse liver microsomes assessed as half life

| Structure (SMILES) | half-life (in vitro [2]) [min] | inhibition [12] [%] | microsomal CLint (in vitro [13]) [µL/min/mg] | inhibition [16] [%] | microsomal CLint (in vitro [17]) [µL/min/mg] | half-life (in vitro [21]) [min] | other results |
| --- | --- | --- | --- | --- | --- | --- | --- |
| O=C(c1ccc(F)c(Cl)c1)N1CCC(CNCCCc2c[nH]c3ccc(F)cc23)CC1 | 26.8 | 101 | 22.5 | 99 | 51.8 | 61.6 | IC50 [1]: 8.2 nM; inhibition [3]: < 75%; inhibition [4]: < 75%; inhibition (Homo sapiens [5]): 86.5%; Ki [6]: 36 nM; inhibition [7]: < 75%; Ki ([8]; read-out: Ki): 0.069 nM; Ki [9]: 150 nM; Activity (Mus musculus [10]): 34%; inhibition (Homo sapiens [11]): 82%; inhibition [14]: < 75%; inhibition [15]: < 75%; Activity (Mus musculus [18]): 24%; Activity (Mus musculus [19]): Active; Activity (Mus musculus [20]): 19% |
| CN(CCCc1c[nH]c2ccc(F)cc12)CC1CCN(C(=O)c2ccc(F)c(Cl)c2)CC1 | – | 102 | – | 94 | – | – | – |
| O=C(c1ccc(F)c(Cl)c1)N1CCC(NCCCc2c[nH]c3ccc(F)cc23)CC1 | – | 102 | – | 96 | – | – | – |
| NC(=O)c1ccccc1C(=O)N1CCC(CNCCCc2c[nH]c3ccc(F)cc23)CC1 | 10 | 102 | 105 | 98 | 138 | 13.2 | – |
| O=C(c1ccc(F)c(Cl)c1)N1CCC(CNCCCCCc2c[nH]c3ccc(F)cc23)CC1 | – | 101 | – | 92 | – | – | – |
| N#Cc1ccc2[nH]cc(CCCCN3CCN(c4ccc5oc(C(N)=O)cc5c4)CC3)c2c1 [VILAZODONE] | 26.9 | – | 60.6 | – | 51.6 | 23.1 | – |
| O=C(c1cccc(Cl)c1)N1CCC(CNCCCc2c[nH]c3ccc(F)cc23)CC1 | 9.07 | 103 | 49.8 | 101 | 153 | 27.8 | – |
| N#Cc1ccc2[nH]cc(CCCNCC3CCN(C(=O)c4ccc(F)c(Cl)c4)CC3)c2c1 | 12.2 | 103 | – | 100 | 113 | – | – |
| Fc1ccc(N2CCN(CCCc3c[nH]c4ccc(F)cc34)CC2)c(-c2ccccc2)c1 | – | – | – | – | – | – | IC50 [1]: 177 nM; Ki ([8]; read-out: Ki): 12 nM |
| O=C(c1ccc(F)c(F)c1)N1CCC(CNCCCc2c[nH]c3ccc(F)cc23)CC1 | 19.5 | 103 | – | 99 | 71.2 | – | – |
| O=C(c1ccc(Cl)c(Cl)c1)N1CCC(CNCCCc2c[nH]c3ccc(F)cc23)CC1 | 30.5 | 101 | 44.9 | 100 | 45.4 | 30.8 | IC50 [1]: 17 nM; Ki ([8]; read-out: Ki): 0.097 nM |
| O=C(c1ccc(F)cc1)N1CCC(CNCCCc2c[nH]c3ccc(F)cc23)CC1 | 16.4 | 101 | – | 100 | 84.3 | – | – |
| NC(=O)c1ccc(C(=O)N2CCC(CNCCCc3c[nH]c4ccc(F)cc34)CC2)cc1 | 330 | 100 | 13.6 | 98 | 4.2 | 102 | – |
| O=C(c1ccc(Cl)cc1)N1CCC(CNCCCc2c[nH]c3ccc(F)cc23)CC1 | 19.5 | 103 | – | 100 | 70.9 | – | – |
| O=C(c1ccc(F)c(Cl)c1)N1CCC(CNCc2cccc(-n3cccn3)n2)CC1 | – | – | – | – | – | – | Ki [8]: 1.54 nM |
| Cc1ccc(C(=O)N2CCC(CNCCCc3c[nH]c4ccc(F)cc34)CC2)cc1 | 4.48 | 99 | – | 99 | 310 | – | – |
| Fc1ccc(OCCN2CCC(c3c[nH]c4ccc(F)cc34)CC2)c(-c2ccccc2)c1 | – | – | – | – | – | – | IC50 [1]: 0.5 nM; Ki ([8]; read-out: Ki): 0.2 nM |
| CCCN(CCCc1c[nH]c2ccc(F)cc12)CC1CCN(C(=O)c2ccc(F)c(Cl)c2)CC1 | – | 101 | – | 86 | – | – | – |
| O=C(c1ccc(F)c(Cl)c1)N1CCC(CNCCCCc2c[nH]c3ccc(F)cc23)CC1 | 11.7 | 103 | 30.8 | 99 | 118 | 45 | – |
| NC(=O)c1cccc(C(=O)N2CCC(CNCCCc3c[nH]c4ccc(F)cc34)CC2)c1 | 154 | 102 | 5 | 98 | 9 | 277 | – |
| Cc1cc(C(=O)N2CCC(CNCCCc3c[nH]c4ccc(F)cc34)CC2)ccc1F | 3.86 | 103 | – | 100 | 559 | – | – |
| O=C(c1ccc(F)c(Cl)c1)N1CCC(CNCCc2c[nH]c3ccc(F)cc23)CC1 | – | 101 | – | 93 | – | – | – |
